Reference: patent publication US11229664B2, “Treatment of myelosuppression” (priority 2012, dated 2022)
Values joined by “and” are separate entries in the source; they are usually repeats but may differ in a detail not shown here. Equal values may be shown once.

Tests used:
[1] = type: in vivo, human; conditions: ODSH adjunct to gemcitabine/nab-paclitaxel
Protocol: Patients were also assessed for other side effects of chemotherapy, including fatigue, sensory neuropathy, nausea, and vomiting, each of which was graded according to severity. Grades were: 0 (normal), 1 (mild), 2 (moderate), 3 (severe) and 4 (life-threatening).

[2] = test system: BxPC-3 pancreas tumor cell line; assay: BxPC-3 human pancreas tumor xenograft model: tumor weight, tumor growth inhibition (TGI); type: in vivo, female athymic nude mice; conditions: for Tumor weight, Mean / Tumor weight, Median / Tumor weight, individual mice: Group 2: ODSH 24 mg/kg BID, IV Days 1-11, SC Days 12-end
Protocol: Compounds tested in the experiment were as follows. ODSH was made by Pyramid Laboratories, Inc. (Costa Mesa, Calif.). ODSH was provided at a stock concentration of 50 mg/ml and stored at room temperature until use. ODSH was diluted in a 0.9% NaCl solution (B. Braun Medical Inc., Irvine, Calif.) to a concentration of 2.4 mg/ml to deliver 24 mg/kg, in a 10 ml/kg dose volume when administered intravenously. A concentration of 4.8 mg/ml was formulated to deliver a 24 mg/kg dose at a 5 ml/kg dose volume when administered subcutaneously. ODSH was formulated fresh prior to each dose.
Nab-paclitaxel was manufactured by Abraxis BioScience LLC (Bridgewater, N.J.) and diluted in a 0.9% NaCl solution to a concentration of 1.5 mg/ml to deliver 15 mg/kg, in a 10 ml/kg dose volume. All standard agent preparations were made fresh prior to their administration.
BxPC-3 cells were obtained and prepared as follows. The BxPC-3 pancreas tumor cell line was received from American Type Culture Collection (ATCC, Manassas, Va.). Cultures were maintained in RPMI 1640 medium (Hyclone, Logan, Utah) supplemented with 5% fetal bovine serum. The cells were housed in a 5% CO2 atmosphere. The cultures were expanded in tissue culture flasks at a 1:3 split ratio until a sufficient amount of cells were harvested.
BxPC-3 Human Pancreas Tumor Xenograft Model: Female athymic nude mice per treatment condition were inoculated subcutaneously in the right flank with 0.1 ml of a 50% RPMI 1640/50% Matrigel™ (BD Biosciences, Bedford, Mass.) mixture containing a suspension of BxPC-3 tumor cells (approximately 5×10^6 cells/mouse).
Study Director V.1.7.54k (Study Log).
Mean tumor growth inhibition (TGI) was calculated utilizing Formula A below (deaths were not included in the TGI calculations).
All statistical analyses in the xenograft study were performed with GraphPad Prism® v4 software.

[3] = test system: CA19-9 (carbohydrate antigen 19-9); assay: Clinical trial: serum level of CA19-9; type: in vivo, human; conditions: for CA19-9 Serum levels: individual patients, ODSH adjunctive to gemcitabine and nab-paclitaxel
Protocol: Treatment consisted of a series of 28-day cycles, wherein the last day of one cycle (e.g., day 28, cycle 1) was immediately followed by the first day of the next cycle (e.g., day 1, cycle 2). In each 28-day treatment cycle, patients were dosed at days 1, 8, and 15 (three weeks of medication followed by one week of rest) as follows. First, nab-paclitaxel at 125 mg/m^2 was administered as an intravenous infusion over 30 minutes. […] Nab-paclitaxel and gemcitabine therapy was given as described in the prescribing information for Abraxane® and Gemzar®. See also, Von Hoff et al., 2011, J. Clinical Oncology 29:1-7). […]
Blood samples were also tested on day 1 of each treatment cycle for the serum level of CA19-9 (carbohydrate antigen 19-9) a marker used to assess the efficacy of the chemotherapy agents in treating pancreatic cancer. See. e.g., Maeda, 2011, Int. J. Clin. Oncol. 16(5):539-45. Reduction in the serum level of CA19-9 is indicative of chemotherapeutic efficacy against the pancreatic cancer. Tumor response and disease status was measured according to Response Evaluation Criteria in Solid Tumors (RECIST) Guidelines Version 1.1. Eur. J. Cancer, 2009, 45:228-247. A reduction of at least 30% in the sum of the diameters of target lesions (measurable lesions present at screening, up to 2 lesions per involved organ) was scored as a partial response. Patients were scored as having stable disease where the smallest sum of target lesion diameters neither decreased nor increased sufficiently to qualify as a partial response or progressive disease.

clotting time (aPTT) = assay: aPTT assay, clotting time after administration to a subject; type: in vivo; conditions: administered to a subject at a (dose equivalent to a) fully-anticoagulating dose of unfractionated heparin; normal about 27 to 35 seconds
Source text: In various preferred embodiments, the PF4-interacting heparinoid is substantially nonanticoagulant. Anti-coagulation activity can be determined using assays known in the art, e.g., activated partial thromboplastin time (aPTT), prothrombin time, anti-Xa clotting and amidolytic assays. See, e.g., U.S. Pat. No. 5,668,118, Example IV; Fryer et al., 1997, J. Pharmacol. Exp. Ther. 282: 208-219, at page 209; Rao et al., 2010, Am. J. Physiol. 299:C97-C110, at page C98; United States Pharmacopeial Convention 1995 (for USP anticoagulant assay and amidolytic assay).
In contrast to unfractionated heparin, ODSH is substantially non-anticoagulating: administered to a subject at a dose that is equivalent to a fully-anticoagulating dose of unfractionated heparin, the clotting time measured in an aPTT assay is no greater than 45 seconds, and typically in the upper range of normal, where normal clotting time ranges from about 27 to 35 seconds. By comparison, unfractionated heparin administered to a subject at a fully anticoagulant dose causes time to clot to range from about 60 to about 85 seconds in an aPTT assay. Another measure of ODSH's anticoagulant activity is its anti-Xa activity which can be determined in an assay carried out using plasma treated with Russell viper venom. […] Whether or not a heparinoid is substantially non-anticoagulating can be determined using any of the above assays.

[4] = ANOVA with Tukey's Multiple Comparison Test, BxPC-3 xenograft

In the case of “substantially 2-O, 3-O desulfated heparin [ODSH]”, the “Patients experiencing no more than Grade 1 side effects (fatigue, sensory neuropathy, nausea, vomiting)” value [1] is reported as “more than 50%”, the “Difference in tumor weight compared to vehicle control, Day 26” value [2, 4] is reported as “No significant difference” and the “Difference in tumor weight compared to vehicle control, Day 36” value [2, 4] is reported as “significant difference”. For the same substance, the “Tumor weight, Mean” value ([2]; Day 1) was 122.4 mg, the “Tumor weight, Median” value ([2]; Day 1) was 22.9 mg and the “Tumor weight, individual mice” value ([2]; Day 1) was 114 mg and 116 mg and 172 mg and 94 mg and 131 mg and 106 mg and 125 mg and 143 mg and 129 mg and 140 mg. For the same substance, the “Tumor weight, Mean” value ([2]; Day 4) was 134.0 mg, the “Tumor weight, Median” value ([2]; Day 4) was 28.6 mg and the “Tumor weight, individual mice” value ([2]; Day 4) was 98 mg and 110 mg and 141 mg and 97 mg and 181 mg and 135 mg and 130 mg and 144 mg and 133 mg. The “Tumor weight, Mean” value ([2]; Day 8) was 146.0 mg, the “Tumor weight, Median” value ([2]; Day 8) was 40.4 mg and the “Tumor weight, individual mice” value ([2]; Day 8) was 118 mg and 144 mg and 183 mg and 125 mg and 222 mg and 126 mg and 155 mg and 157 mg and 148 mg. The “Tumor weight, Mean” value ([2]; Day 11) was 187.6 mg, the “Tumor weight, Median” value ([2]; Day 11) was 162.1 mg and the “Tumor weight, individual mice” value ([2]; Day 11) was 288 mg and 142 mg and 175 mg and 243 mg and 146 mg and 252 mg and 137 mg and 140 mg and 203 mg. For the same substance, the “Tumor weight, Mean” value ([2]; Day 15) was 263.0 mg, the “Tumor weight, Median” value ([2]; Day 15) was 250.0 mg and the “Tumor weight, individual mice” value ([2]; Day 15) was 340 mg and 224 mg and 263 mg and 348 mg and 237 mg and 321 mg and 208 mg and 218 mg and 264 mg. The “Tumor weight, Mean” value ([2]; Day 18) was 338.5 mg, the “Tumor weight, Median” value ([2]; Day 18) was 304.7 mg and the “Tumor weight, individual mice” value ([2]; Day 18) was 489 mg and 291 mg and 288 mg and 419 mg and 256 mg and 415 mg and 318 mg and 278 mg and 352 mg. The “Tumor weight, Mean” value ([2]; Day 22) was 453.8 mg, the “Tumor weight, Median” value ([2]; Day 22) was 425.4 mg and the “Tumor weight, individual mice” value ([2]; Day 22) was 622 mg and 360 mg and 400 mg and 556 mg and 402 mg and 551 mg and 449 mg and 326 mg and 515 mg. For the same substance, the “Tumor weight, Mean” value ([2]; Day 26) was 616.2 mg, the “Tumor weight, Median” value ([2]; Day 26) was 551.3 mg and the “Tumor weight, individual mice” value ([2]; Day 26) was 894 mg and 478 mg and 529 mg and 770 mg and 573 mg and 724 mg and 524 mg and 394 mg and 766 mg. For the same substance, the “TGI (mean tumor growth inhibition), Day 26” value ([2]; Day 26 vs Day 1, compared to vehicle control, BxPC-3 xenograft, ODSH 24 mg/kg BID, oxaliplatin 10 mg/kg, gemcitabine 80 mg/kg (Table 1)) was 11.5%, the “Tumor weight, Mean” value ([2]; Day 30) was 882.3 mg and the “Tumor weight, Median” value ([2]; Day 30) was 856.4 mg. The “Tumor weight, individual mice” value ([2]; Day 30) was 1,083 mg and 756 mg and 893 mg and 1,201 mg and 820 mg and 945 mg and 764 mg and 555 mg and 1,109 mg, the “Tumor weight, Mean” value ([2]; Day 33) was 1,038.6 mg and the “Tumor weight, Median” value ([2]; Day 33) was 979.8 mg. The “Tumor weight, individual mice” value ([2]; Day 33) was 1,218 mg and 999 mg and 961 mg (2×) and 1,309 mg and 1,087 mg and 871 mg and 733 mg and 1,340 mg, the “Tumor weight, Median” value ([2]; Day 36) was 1,151.5 mg and the “Tumor weight, individual mice” value ([2]; Day 36) was 1,450 mg and 1,153 mg and 1,150 mg (2×) and 1,654 mg and 1,376 mg and 1,037 mg and 836 mg and 1,823 mg. The “TGI (mean tumor growth inhibition), Day 36” value ([2]; Day 36 vs Day 1, compared to vehicle control, BxPC-3 xenograft, ODSH 24 mg/kg BID, oxaliplatin 10 mg/kg, gemcitabine 80 mg/kg, nab-paclitaxel 15 mg/kg (Table 1)) was 18.2%, the “Day 26 Tumor Weight” value ([2]; Table 14, treatment administered until Day 26) was 616.2 ± 50.9 mg and the “Day 26 Tumor Weight” value ([2]; Table 15, treatment administered until Day 35) was 1270.1 ± 95.5 mg. For the same substance, the “Patients in whom serum CA19-9 level decreased” value ([3]; ODSH adjunct to gemcitabine/nab-paclitaxel) was 8 of 10, the “CA19-9 Serum levels” value ([3]; Cycle 1 Day 1) was 395 U/mL and 70,086 U/mL and 2,138 U/mL and 483 U/mL and 11 U/mL and 326 U/mL and 4,775 U/mL and 125 U/mL and 6,186 U/mL and 6,275 U/mL and the “CA19-9 Serum levels” value ([3]; Cycle 2 Day 1) was 490 U/mL and 22,958 U/mL and 502 U/mL and 453 U/mL and 17 U/mL and 710 U/mL and 5,934 U/mL and 71 U/mL and 4,392 U/mL and 4,018 U/mL. For the same substance, the “CA19-9 Serum levels” value ([3]; Cycle 3 Day 1) was 251 U/mL and 10,286 U/mL and 328 U/mL and 205 U/mL and 15 U/mL and 164 U/mL and 8,529 U/mL and 27 U/mL and 2,669 U/mL and 1,433 U/mL, the “CA19-9 Serum levels” value ([3]; Cycle 4 Day 1) was 108 U/mL and 288 U/mL and 110 U/mL and 20 U/mL and 69 U/mL and 9,926 U/mL and 15 U/mL and 2405 U/mL and 348 U/mL and the “Clotting time in aPTT assay” value (clotting time (aPTT)) was ≤ 45 s.
